Results on two compounds are retold here after patent US20130158070A1, “CONJUGATES OF POLYUNSATURATED FATTY ACIDS AND AMINE-CONTAINING COMPOUNDS AND USES THEREOF” (priority 2010, published 2013).

A short description of series [1]: Pharmacokinetic profile after oral administration in rats. The series is classed as in vivo, Sprague-Dawley male rats. How it is done: Evaluation of the pharmacokinetic profile of MWL001 after oral administration in rats was performed.
Sprague-Dawley male rats weighing 300-325 g were used to evaluate the oral absorption of MWL001 and its blood levels. They were deprived of food overnight and given free access to water. A dose of 10 mg/kg MWL-001 (3.3 mg/rat) was dispersed in 2.5 mL DDW and delivered to the rats by oral gavage. Blood samples (300 μl) from the rats' tails were collected in heparin containing tubes at 0, 0.5, 1, 1.5, 2, 3, 4, 6, 8, 12 and 24 h. The samples were immediately centrifuged at 10,000 rpm for 5 min, after which 150 μl of plasma samples were transferred to new tubes and stored at −80° C. until analyzed by LCMS/MS.
The assay was based on protein precipitation of MWL001 and DHA (as an MWL001 metabolite) using methanol (100 μL plasma sample mixed with […] of methanol. The separation was carried out under reverse-phase conditions employing a Phenomenex Synergi, column (MAX-RP, 50×2 mm, 2.5 μm, 100A (in gradient mode. The mobile phase A was methanol/water/formic acid 20/80/0.2 and the mobile phase B was methanol/water/formic acid 80/20/0.2. The flow rate was maintained at 0.3 mL/min, and the column was maintained at 40° C. HPLC-MS/MS analysis was performed with a Shimadzu LC-20 HPLC system coupled with a Sciex Qtrap 3200 Turbo Ion Spray detector in positive ionization mode. The tested samples were quantified against a calibration curve in the range of 5-50 ng/mL.

For series [2], the system named is collagen induced arthritis. Briefly: Collagen induced arthritis (CIA), PGE2 production and TNFα levels. To be noted: 250 mg/(kg/day) orally, 21 days, compared to Ibuprofen 500 mg/(kg/day). The series is classed as in vivo, black/57 mice. The protocol:
Male black/57 mice, age 8-10 weeks, were used in in vivo study of PGE2 production and TNFα levels in collagen induced arthritis (CIA) model.
Bovine CII (type II collagen CII, Sigma, St. Louis, Mo., USA) was dissolved in 0.1 M acetic acid overnight at 4° C. and was thereafter emulsified in an equal volume of complete Freund's adjuvant (Sigma). The mice were immunized intradermally at the base of the tail with 100 μl of emulsion containing 100 μg of CII. On day 21, mice were boosted intraperitoneally with 100 μg CII dissolved in phosphate buffered saline (PBS).
The tested conjugate or Ibuprofen (Sigma, Israel) were dissolved in 80% Cremophor EL:saline 80%:20%, respectively.
Mice were randomly selected and assigned to one of the following groups: tested conjugate (250 mg/(kg/day); n=4), Iboprofen (500 mg/ (kg/day); n=4) or vehicle (n=4). The tested conjugate and Ibuprofen were administered orally. Treatment was given daily for a period of 21 days.
Joint tissues were prepared as previously described for measuring the production of PGE2 and cytokines. […] PGE2 concentration was measured with a commercial radio immunoassay (RIA) kit (Amersham, UK) according to the manufacturer's instructions. […] Results were expressed as pg/ml of serum or supernatant from joint homogenate.

Series [3] relates to collagen induced arthritis. The experiment in a line: Collagen induced arthritis (CIA), arthritis score, paw thickness, body weight. It counts as in vivo, DBA/1J mice. How it is done: In a different study, 34 male 8-10 weeks old DBA/1J mice were used. Animals were fed ad libitum a commercial rodent diet (Teklad Certified Global 18% Protein Diet cat #: 106S8216). Animals had free access to acidified drinking water (pH between 2.5 and 3.0) obtained from the municipality supply.
The effect of MWL-002 (conjugate of DHA and taurine) was tested and compared to that of Ibuprofen. Cremophore EL was used as a vehicle.
On day 0, each mouse was anesthetized by inhalation of 3% isofluorane and injected intradermally at the base of the tail with 0.1 ml of emulsion containing 100 μg collagen, using a 1-ml glass syringe with a 26-guade needle. Booster injection was performed at day 15 to the same injection site.
The tested materials were administered 3 times a week, via IP for a total of 12 administrations starting on day 1.
Observations for clinical score were performed twice weekly until study termination.
The severity of arthritis was scored based on the level of inflammation in each of the four paws and recorded as one of five grades according to the following:
Hind paw thickness (edema) was measured by digital caliper once a week until Day 14 and thereafter twice weekly and prior to study termination. Two cross sectional areas were marked, one on the paw and the other at the ankle (tarsal joint). Two measurements were made on each section, perpendicular to each other. The results obtained were calculated as the average areas of both hind limbs per animal.
Body weight was measured prior to dosing, during the study twice a week and prior to study termination.

Setting [4] is: male, Sprague-Dawley, rat, 10 mg/kg oral gavage, plasma.

Usually AUC stands for the area under the concentration-time curve, a measure of exposure. Usually Cmax stands for the highest concentration seen after dosing. One may read the Tmax as the time from dosing to the highest level. Take `CCC=CCC=CCC=CCC=CCC=CCC=CCCC(=O)N1CC(O)CC1C(=O)O` (stereo not drawn) [MWL001]: in series [1] (10 mg/kg oral gavage, plasma), the “Cl (Clearence)” value stood at 25.212 ± 3.152 mL/min/kg and the “V (Volume of distribution)” value is given as 11283.0 ± 3583.1. For the same compound, the “oral absorption / bioavailability” value in series [1] (10 mg/kg oral, FIG. 9) is recorded as “high bioavailability”. Also, in series [1] (setting [4]), the AUC is 6690 ± 838 ng·h/mL, the Cmax came out at 1040 ± 77.5 ng/mL and the Tmax turned out to be 2.3 ± 0.5 h. Besides, in series [1] (male, Sprague-Dawley, rat, 10 mg/kg oral gavage, plasma, read-out: T½ (converted)), the half-life is 4.9 ± 0.6 h. Besides, the “metabolism (major metabolite)” value in series [1] (oral, plasma, FIG. 9) is “undergoes decomposition to DHA”. For the same compound, in series [2], the “Prostaglandin E2 levels in the joints” value is on record as “significant decrease” and the TNF-α levels result is on record as “significant decrease”.

Take `CC/C=C\C/C=C\C/C=C\C/C=C\C/C=C\C/C=C\CCC(=O)NCCS(=O)(=O)O` [MWL002, N-docosa-4,7,10,13,16,19-hexaenoyl-taurine]: the “day from which arthritis score (AS) increases” value in series [3] (50 mg/kg IP, 3 times a week, 12 administrations) is 57 days. In series [3] (50 mg/kg IP, overall conclusion), the CIA development entry is “inhibits CIA development robustly”. For the same compound, the body weight entry in series [3] (50 mg/kg IP, from day 37, in comparison to the other 3 groups) is “increase the body weight in a major percent”. Moreover, the “arthritis thickness index (ATI) increase” value in series [3] (from day 0 to day 70, 50 mg/kg IP, groups 1M DHA-Tau, 2M DHA, 4M Ibuprofen) is 150%. Also, the ATI course entry in series [3] (from day 43 until end of study, FIG. 8B) is “almost no changes”.
